# Values quoted from earlier work in patent US10059681B2, “Disubstituted maleic anhydrides with altered kinetics of ring closure” (Arrowhead Madison Inc., priority 2011, dated 2018).
# What was measured:
# [1] = Eberson et al. 1971
# [2] = Kirby 1980
SMILES,K=k1/k−1 of equilibrium in water toward ring closure [1],kobs of amine release [2]
C/C(C(=O)O)=C(\C)C(=O)O [dimethyl maleic acid],5.3,
CNC(=O)C1=C(C(=O)O)CCCC1,,3.5×10^−2
O=C(O)c1ccccc1C(=O)O [phthalic acid],10^−2,
